Key:
Type in all cases: in vivo
[1] = test system: sweet sensitive panelists; assay: Comparison of the sweetness of mogroside V and iso-mogroside V in water, blind samples, sensory panel; settings: panel of 4
Method: The intensity of sweet taste of iso-mogroside V when compared to mogroside V was determined in water using near-sweetness detection threshold concentrations. The direct comparison was carried out by a panel of 4 sweet sensitive panelists. Blind samples (identity unidentifiable by panelists) were randomly presented to panelists in 15 ml aliquots at ambient temperature. Sensory evaluation started with the lower sample concentration (10 ppm).

[2] = test system: sweet sensitive panelists; assay: Sweetness enhancement of iso-mogroside V at near threshold concentration in 7% sucrose solution, sensory panel; settings: 10 ppm iso-mogroside V in 7% sucrose solution
Method: The sweetness enhancement properties of iso-mogroside V was determined using a sample having a concentration of 10 ppm iso-mogroside V, which is near the sweetness detection threshold, in 7% sucrose solution.
The iso-mogroside V sample was directly compared to samples of 7%, 8% or 9% sucrose, and panelists were instructed to compare the sweetness intensity of the samples.
The comparisons were carried out by a panel of 6 sweet sensitive panelists. All samples were presented to panelists in 15 ml aliquots at ambient temperature. Panelists compared the iso-mogroside V sample to each of the sucrose samples.

[3] = test system: sweet sensitive panelists; assay: Determination of the sweetness threshold of iso-mogroside V: isointensity to sucrose solutions, paired comparison
Method: […] Samples were paired and tasted left to right with rinsing of the mouth (water) in-between. 20 ppm iso-mogroside V was evaluated as described but with 4 sweet sensitive panelists and 0.5, 1.0 and 1.5% sucrose.

[4] = Preliminary experiments on flavour enhancing effect on sweeteners

## C[C@H](CC[C@@H](O[C@@H]1O[C@H](CO[C@@H]2O[C@H](CO)[C@@H](O)[C@H](O)[C@H]2O)[C@@H](O)[C@H](O)[C@H]1O[C@@H]1O[C@H](CO)[C@@H](O)[C@H](O)[C@H]1O)C(C)(C)O)[C@H]1CC[C@@]2(C)[C@@H]3CC=C4[C@@H](CC[C@H](O[C@@H]5O[C@H](CO)[C@@H](O[C@@H]6O[C@H](CO)[C@@H](O)[C@H](O)[C@H]6O)[C@H](O)[C@H]5O)C4(C)C)[C@]3(C)[C@H](O)C[C@]12C [iso-mogroside V, 3-[(4-O-β-D-glucopyranosyl-β-D-glucopyranosyl)oxy]-mogrol-24-O-β-D-glucopyranosyl-(1→2)-O-[β-D-glucopyranosyl-(1→6)]-β-D-glucopyranoside]
[1]; 10 ppm in water
  Taste of iso-mogroside V samples compared to mogroside V: sweeter
  panelists who indicated iso-mogroside V is sweeter than mogroside V: two
[1]; 20 ppm in water
  Taste of iso-mogroside V samples compared to mogroside V: sweeter
  panelists who indicated iso-mogroside V is sweeter than mogroside V: 4 panelists
[2]
  panelists who found the sample as sweet or sweeter as 8% sucrose: 5 of 6
  panelists who found the sample sweeter than 7% but less sweet than 8% sucrose: 1 of 6
[2]; after subtracting own sweetness of 0.5% sucrose
  sweetness enhancement effect (equal to sucrose): ≥ 0.5 % sucrose
[2]; compared to 7%, 8% or 9% sucrose, panel of 6
  sweetness of iso-mogroside V sample (equal to sucrose): ≥ 8 % sucrose
[3]; 10 ppm in water vs 0% sucrose (water), 5 panelists
  Taste of iso-mogroside V samples compared to sucrose: sweeter
[3]; 10 ppm in water vs 0.5% sucrose, 5 panelists
  Taste of iso-mogroside V samples compared to sucrose: isosweet
[3]; 10 ppm in water vs 1.0% sucrose, 5 panelists
  Taste of iso-mogroside V samples compared to sucrose: less sweet
[3]; 20 ppm in water vs 0.5% sucrose, 4 panelists
  Taste of iso-mogroside V samples compared to sucrose: sweeter
[3]; 20 ppm in water vs 1% sucrose, 4 panelists
  Taste of iso-mogroside V samples compared to sucrose: isosweet
[3]; 20 ppm in water vs 1.5% sucrose, 4 panelists
  Taste of iso-mogroside V samples compared to sucrose: less sweet
[3]; about 0.2 ppm in water as stated
  equivalent sweetness intensity at the sweetness detection threshold: about 0.5 % sucrose
[3]; from 10 ppm isosweet to 0.5% sucrose
  sweetness relative to sucrose: about 500 times
[4]
  flavour enhancing effect on sweeteners compared to its known isomer (mogroside V): particularly high flavour enhancing effect
